Measurements published in patent US20250090865A1, “LESIONAL DOSIMETRY FOR TARGETED RADIOTHERAPY OF CANCER” (Memorial Sloan-Kettering Cancer Center, priority 2021, published 2025).
Read-outs that look alike come from different tables or passages of the source.

Experiments:
[1] = test system: individual lesions of metastatic thyroid cancer; test: ^124I PET/CT imaging of lesion radioiodine uptake; format: in vivo, human; settings: 48 h after oral ^124I
Description: Population. The present study includes consecutive 21 patients studied under two different RB-approved protocols who underwent imaging. Patients who were considered candidates for RAI treatment of DTC were enrolled. All patients had histologically confirmed, metastatic thyroid cancer.
Dosimetry and estimation of average lesion uptake. […] (FIG. 9).

[2] = test system: individual lesions of metastatic thyroid cancer
Description: Dosimetry and estimation of average lesion uptake. A workflow was established for four-time point measurement of individual lesion radioiodine kinetics to generate area under the curve (AUC) estimation for accurate determination of the radiation dose in Gray (Gy) to individual lesions in patients undergoing RAI therapy for DTC. Positron emission tomography (PET/CT) imaging was performed after oral administration of 222 MBq (6.0 mCi) of ^124I—NaI (3D Imaging, Waco, TX). Whole-body imaging was performed at 4, 24, 48, and 96 hours after oral administration of the radioactivity (FIG. 4). Regions of interest were obtained over all visible lesions >0.5 cm within the body and multiple parameters were obtained for later analysis. The following parameters were captured in a database for each patient and each lesion: size in three dimensions (cm); standardized uptake value (SUV), maximum and average; lean body weight; and activity concentration in microcurie/gram. (FIG. 9). For these patients, the best clearance fitting curve was estimated using a dual exponential equation model comprising lesion uptake and clearance. Prior to integration, clearance fitting was adjusted to replace the decay constant of ^124I with ^131I, the therapy isotope of interest, and then integrated to obtain the AUC. This AUC was multiplied by the equilibrium dose constant for the non-penetrating P-emissions of ^131I, yielding the lesion-absorbed dose in Gy.
Range of ^131I activity to treat a chosen efficacy rate for RAI in mDTC patients. A multi-disciplinary team of nuclear medicine specialists, endocrinologists, medical oncologists, and medical physicists met weekly to make treatment decisions based on the PET data generated, including data from the methods disclosed herein.
(§1) The target radiation dose of 2000 cGy was chosen because doses above this level are often used as the threshold for patients to receive further radioiodine treatment. Based on the PI now available for the AUC, a simple calculation of the relationship between ^124I and ^131I uptake can yield a PI for the dose [dlow−dhigh]. […] Thus, the higher boundary (dhigh) corresponds to the activity to treat 97.5% of the lesions with the given uptake. By varying this boundary, it is possible to select an activity that will target 95%, 90%, or fewer of the lesions.
The full parameter data set consists of: anatomical descriptor, mean size (cm), lesion dose per projected unit millicurie of administered ^131I activity with and without partial volume correction (5), half-life based on a linear slop between day 3 and 5 as well as based on exponential curve fitting, area under the curve based on an integrated curve fit, estimated activity per gram at 48 and 72 hours post-administration, SUV and SUL (based on lean body mass) at 24, 48, and 72 hours post-administration, the administered activity to deliver 2,000 cGy, the radiation dose estimate resulting from the actual therapeutic amount administered to the patient, and the maximum projected dose that could have been achieved had the maximum tolerated activity been administered. This dataset was used as the input to derive a statistical model to predict the radiation dose to lesions.

[3] = test system: metastatic thyroid cancer; settings: patients with any lesion with predicted dose >2000 cGy
Description: Prediction of activity to deliver 2000 cGy. An operational definition in the methods disclosed herein is that a patient with any lesion with a predicted dose of >2000 cGy would likely respond to treatment. […] A total of 208 lesions are included in the analysis. The prediction is limited for lesions with an SUV >1, as no treatment is planned for lesions with no uptake. Lesions that received no treatment (n=39) were included in the analysis, as prediction is still feasible. […] In (SUV_48_)___.

[4] = test system: individual lesions of metastatic thyroid cancer; remark: listed apart in the source
Description: Predicting AUC based on a single time point. One goal of this study was to use a single time point to predict the overall area under the radioiodine lesion activity retention curve to estimate the radiation-absorbed dose to lesions without the need for costly additional PET/CT imaging to fully characterize the kinetic behavior. […] For this estimation, the unit is the lesion, and a generalized estimating equation approach is used to estimate the parameters (intercept, slope, and robust variance matrix) accounting for the correlation between lesions in the same patient. Log-transformed values of the uptake and doses are used to ensure the data are normally distributed.
Second, using the estimations for R and the covariance matrix, a prediction interval (PI) is calculated. A PI differs from a confidence interval, as it aims to predict with 95% confidence where future measurements will fall. In our case, if we observed the same value of SUV at 48 h for 100 new lesions, the PI is the range in which 95 of those lesions' AUCs will be found. As difficulties arose when analytically constructing the PI, simulated prediction was used to calculate PIs following the steps detailed in Gelman and Hill, Data Analysis Using Regression and Multilevel/Hierarchical Models (1st Edition, 2007) and summarized in Appendix A.
To validate the accuracy of the prediction, a leave-one-patient-out cross-validation approach was used. For each patient i (i=1, . . . , n), the linear regression parameters are re-estimated using n−1 patients (excluding i), and PIs are calculated for each lesion in patient i based on their measured predictor values.
For those lesions, the actual observed AUC is then compared to the PI. When using 95% PI, it is expected that 95% of the observed values will fall into the corresponding PIs; i.e., 5% will be outside the prediction. In addition, for each left-out patient, an error of prediction is calculated corresponding to the squared difference between the predicted and true AUC values for each lesion. This squared error is average over all the lesions of all the patients to obtain a cross-validated error.
as §1

[5] = median of 21 patients
Description: Maximum Tolerated Activity (MTA).
To perform these studies, serial blood samples and total body measurements were conducted to determine β- and photon radiation dose contributions to blood (a proxy for the dose-limiting bone marrow) from a pre-therapy tracer administration of either ^124I or ^131I.

## [124I-].[Na+] [^124I, ^124I—NaI]
[1]; patient 1, 13 lesions
  SUV(48 h): 8.03
[1]; patient 2, 18 lesions
  SUV(48 h): 80.1
[1]; patient 3, 14 lesions
  SUV(48 h): 3.25
[1]; patient 4, 12 lesions
  SUV(48 h): 7.4
[1]; patient 5, 10 lesions
  SUV(48 h): 1.85
[1]; patient 6, 16 lesions
  SUV(48 h): 27.8
[1]; patient 7, 23 lesions
  SUV(48 h): 35
[1]; patient 8, 6 lesions
  SUV(48 h): 1.73
[1]; patient 9, 8 lesions
  SUV(48 h): 4.35
[1]; patient 10, 4 lesions
  SUV(48 h): 26.2
[1]; patient 11, 11 lesions
  SUV(48 h): 11.30
[1]; patient 12, 3 lesions
  SUV(48 h): 0.7
[1]; patient 13, 13 lesions
  SUV(48 h): 1.30
[1]; patient 14, 5 lesions
  SUV(48 h): 0.90
[1]; patient 15, 17 lesions
  SUV(48 h): 385.3
[1]; patient 16, 6 lesions
  SUV(48 h): 8.30
[1]; patient 17, 6 lesions
  SUV(48 h): 0.80
[1]; patient 18, 12 lesions
  SUV(48 h): 25.1
[1]; patient 19, 17 lesions
  SUV(48 h): 204.6
[1]; patient 20, 13 lesions
  SUV(48 h): 2.30
[1]; patient 21, 10 lesions
  SUV(48 h): 10.8

## [131I-].[Na+] [^131I, Iodine-131]
[2]; patient 1, 13 lesions
  Teff: 8.02 days
[2]; patient 2, 18 lesions
  Teff: 4.28 days
[2]; patient 3, 14 lesions
  Teff: 0.45 days
[2]; patient 4, 12 lesions
  Teff: 3.16 days
[2]; patient 5, 10 lesions
  Teff: 1.48 days
[2]; patient 6, 16 lesions
  Teff: 1.59 days
[2]; patient 7, 23 lesions
  Teff: 2.48 days
[2]; patient 8, 6 lesions
  Teff: 4.41 days
[2]; patient 9, 8 lesions
  Teff: 3.03 days
[2]; patient 10, 4 lesions
  Teff: 1.26 days
[2]; patient 11, 11 lesions
  Teff: 2.98 days
[2]; patient 12, 3 lesions
  Teff: 3.8 days
[2]; patient 13, 13 lesions
  Teff: 1.55 days
[2]; patient 14, 5 lesions
  Teff: 1.74 days
[2]; patient 15, 17 lesions
  Teff: 3.79 days
[2]; patient 16, 6 lesions
  Teff: 4.77 days
[2]; patient 17, 6 lesions
  Teff: 8.04 days
[2]; patient 18, 12 lesions
  Teff: 1.69 days
[2]; patient 19, 17 lesions
  Teff: 1.55 days
[2]; patient 20, 13 lesions
  Teff: 1.74 days
[2]; patient 21, 10 lesions
  Teff: 4.63 days
[3]
  probability of complete reduction: 100%
  probability of durable partial RECIST response: 75%
[4]; SUV at 48 h 2
  AUC 95% PI: 1.5-9.1 uCi · hr/g per mCi
  AUC Mean Estimate: 4.0 uCi · hr/g per mCi
[4]; SUV at 48 h 4
  AUC 95% PI: 3.3-20.3 uCi · hr/g per mCi
  AUC Mean Estimate: 8.1 uCi · hr/g per mCi
[4]; SUV at 48 h 6
  AUC 95% PI: 4.8-29.2 uCi · hr/g per mCi
  AUC Mean Estimate: 12.1 uCi · hr/g per mCi
[4]; SUV at 48 h 8
  AUC 95% PI: 6.4-38.8 uCi · hr/g per mCi
  AUC Mean Estimate: 16.1 uCi · hr/g per mCi
[4]; SUV at 48 h 10
  AUC 95% PI: 8.6-48.4 uCi · hr/g per mCi
  AUC Mean Estimate: 20.2 uCi · hr/g per mCi
[4]; SUV at 48 h 15
  AUC 95% PI: 11.9-71.0 uCi · hr/g per mCi
  AUC Mean Estimate: 30.3 uCi · hr/g per mCi
[4]; SUV at 48 h 20
  AUC 95% PI: 16.1-97.1 uCi · hr/g per mCi
  AUC Mean Estimate: 40.4 uCi · hr/g per mCi
[4]; SUV at 48 h 30
  AUC 95% PI: 24.3-147.4 uCi · hr/g per mCi
  AUC Mean Estimate: 60.6 uCi · hr/g per mCi
[4]; SUV at 48 h 50
  AUC 95% PI: 40.8-252.9 uCi · hr/g per mCi
  AUC Mean Estimate: 101.2 uCi · hr/g per mCi
[4]; SUV at 48 h 100
  AUC 95% PI: 82.3-479.6 uCi · hr/g per mCi
  AUC Mean Estimate: 202.6 uCi · hr/g per mCi
[4]; SUV at 48 h 200
  AUC 95% PI: 164.2-951.2 uCi · hr/g per mCi
  AUC Mean Estimate: 405.8 uCi · hr/g per mCi
[4]; SUV at 48 h 300
  AUC 95% PI: 257.8-1476.2 uCi · hr/g per mCi
  AUC Mean Estimate: 609.2 uCi · hr/g per mCi
[5]
  Maximum Tolerated Activity (mCi): 426 mCi
